From ChEMBL document CHEMBL1130746, “Naphthalenebis[alpha,alpha-difluoromethylenephosphonates] as potent inhibitors of protein tyrosine phosphatases” (Bioorg Med Chem Lett, 1998)
pIC50, pKi: −log10 of the molar value.

Assays:
[1] = Compound was evaluated for inhibition of PP2A at a concentration of 500 uM)
[2] = target: T1, Receptor-type tyrosine-protein phosphatase C (Homo sapiens) (UniProt P08575); test: Compound was evaluated for inhibition of CD45 protein-tyrosine phosphatase at a concentration of 500 uM)
T1 sequence (whole entry): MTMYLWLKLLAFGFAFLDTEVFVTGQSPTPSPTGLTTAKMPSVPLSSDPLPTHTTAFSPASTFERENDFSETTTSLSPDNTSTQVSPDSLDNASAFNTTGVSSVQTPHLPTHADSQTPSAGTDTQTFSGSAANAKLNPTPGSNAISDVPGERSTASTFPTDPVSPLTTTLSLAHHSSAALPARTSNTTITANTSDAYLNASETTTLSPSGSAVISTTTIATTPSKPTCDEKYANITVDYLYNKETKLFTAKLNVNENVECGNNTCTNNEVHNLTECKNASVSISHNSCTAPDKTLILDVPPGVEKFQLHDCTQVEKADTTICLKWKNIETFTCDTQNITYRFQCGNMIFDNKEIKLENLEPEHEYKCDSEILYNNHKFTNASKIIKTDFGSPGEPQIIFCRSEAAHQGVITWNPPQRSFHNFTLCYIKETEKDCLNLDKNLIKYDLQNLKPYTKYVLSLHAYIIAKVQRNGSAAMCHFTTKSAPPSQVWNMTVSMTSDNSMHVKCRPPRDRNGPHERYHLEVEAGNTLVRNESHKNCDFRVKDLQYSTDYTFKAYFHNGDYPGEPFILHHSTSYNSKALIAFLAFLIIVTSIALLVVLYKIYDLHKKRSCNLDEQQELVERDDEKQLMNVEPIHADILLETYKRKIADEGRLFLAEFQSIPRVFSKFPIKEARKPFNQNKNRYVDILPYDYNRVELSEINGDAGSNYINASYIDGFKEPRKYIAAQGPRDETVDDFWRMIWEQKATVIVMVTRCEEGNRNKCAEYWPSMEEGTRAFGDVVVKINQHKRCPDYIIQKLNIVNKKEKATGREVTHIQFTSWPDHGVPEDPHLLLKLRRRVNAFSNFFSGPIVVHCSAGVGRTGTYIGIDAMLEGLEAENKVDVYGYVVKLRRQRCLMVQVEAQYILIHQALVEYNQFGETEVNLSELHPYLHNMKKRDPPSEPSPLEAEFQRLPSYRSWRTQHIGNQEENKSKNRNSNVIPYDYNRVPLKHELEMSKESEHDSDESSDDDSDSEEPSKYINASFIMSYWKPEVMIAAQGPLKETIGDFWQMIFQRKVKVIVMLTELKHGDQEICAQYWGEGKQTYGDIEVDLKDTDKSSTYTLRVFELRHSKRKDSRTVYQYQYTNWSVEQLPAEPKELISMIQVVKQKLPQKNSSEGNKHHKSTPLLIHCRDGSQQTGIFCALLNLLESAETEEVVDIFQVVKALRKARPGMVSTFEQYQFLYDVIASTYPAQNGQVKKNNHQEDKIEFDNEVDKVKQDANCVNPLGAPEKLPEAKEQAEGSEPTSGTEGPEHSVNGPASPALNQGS

[3] = target: T2, Tyrosine-protein phosphatase non-receptor type 1 (Homo sapiens) (UniProt P18031); test: Compound was evaluated for inhibition of PTP1B at a concentration of 500 uM)
T2 sequence (whole entry): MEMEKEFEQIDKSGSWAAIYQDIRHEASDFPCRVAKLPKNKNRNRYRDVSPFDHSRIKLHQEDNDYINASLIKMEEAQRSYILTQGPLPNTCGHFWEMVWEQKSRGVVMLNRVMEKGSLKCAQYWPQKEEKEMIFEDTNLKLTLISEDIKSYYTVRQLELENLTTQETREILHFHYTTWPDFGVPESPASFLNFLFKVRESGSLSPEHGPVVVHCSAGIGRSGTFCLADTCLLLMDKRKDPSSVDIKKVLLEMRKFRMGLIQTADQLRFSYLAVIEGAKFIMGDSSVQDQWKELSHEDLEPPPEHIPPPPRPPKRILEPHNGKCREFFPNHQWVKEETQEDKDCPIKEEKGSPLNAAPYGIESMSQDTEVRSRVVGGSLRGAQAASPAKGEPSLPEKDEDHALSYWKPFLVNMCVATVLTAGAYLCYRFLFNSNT

[4] = target: T3, Tyrosine-protein phosphatase non-receptor type 1 (Homo sapiens, UniProt P18031); test: Compound was evaluated for 50% inhibition of PTP1B using uM)
T3 sequence (P18031 whole entry): T2 sequence (whole entry)

[5] = target: T4, Receptor-type tyrosine-protein phosphatase C (Homo sapiens, UniProt P08575); test: Compound was evaluated for 50% inhibition of CD45 protein-tyrosine phosphatase using uM)
T4 sequence (P08575 whole entry): T1 sequence (whole entry)

[6] = target: T1, Receptor-type tyrosine-protein phosphatase C (Homo sapiens); test: Compound was evaluated for inhibition of CD45 at a concentration of 500 uM)
[7] = target: T3, Tyrosine-protein phosphatase non-receptor type 1; test: Compound was evaluated for inhibitory constant against PTP1B
[8] = target: T4, Receptor-type tyrosine-protein phosphatase C; test: Compound was evaluated for 50% inhibition of CD45 using uM)
[9] = Compound was evaluated for 50% inhibition of PP2A, a serine/threonine phosphatase using uM)
[10] = target: T4, Receptor-type tyrosine-protein phosphatase C; test: Compound was evaluated for inhibitory constant against CD45

SMILES	inhibition [1] [%]	inhibition [2] [%]	inhibition [3] [%]	pIC50 [4]	pIC50 [5]	inhibition [6] [%]	pKi [7]	pIC50 [8]	pIC50 [9]	pKi [10]
O=P(O)(O)C(F)c1ccc2ccc(C(F)P(=O)(O)O)cc2c1 (configuration not stated)				3.89	3.55					
O=P(O)(O)C(F)(F)c1ccc2ccccc2c1	39		84	4.02		5	3.71	< 3.00	3.12	
O=P(O)(O)C(F)(F)c1cc(C(F)(F)P(=O)(O)O)c2ccccc2c1	66	78	81							
O=P(O)(O)C(F)(F)c1ccc2cccc(C(F)(F)P(=O)(O)O)c2c1	61	99	98	3.93				4.57	3.32	5.05
O=P(O)(O)C(F)(F)c1cccc2ccccc12	52		83	3.95		20	3.59	< 3.00	3.20	
O=P(O)(O)C(F)(F)c1cc(O)c2ccccc2c1							4.03			

Results, then the compound that gave them:

inhibition [1] [%]	inhibition [2] [%]	inhibition [3] [%]	pIC50 [4]	pIC50 [5]	inhibition [6] [%]	pKi [7]	pIC50 [8]	pIC50 [9]	pKi [10]	SMILES
75	70	89								O=P(O)(O)C(F)(F)c1ccc2c(C(F)(F)P(=O)(O)O)cccc2c1
77	26	51								O=P(O)(O)C(F)(F)c1cccc2c(C(F)(F)P(=O)(O)O)cccc12
			< 3.30	3.30						O=P(O)(O)Cc1ccc2ccc(CP(=O)(O)O)cc2c1
70	62	100	4.54	< 4.00				3.45		O=P(O)(O)C(F)(F)c1ccc2cc(C(F)(F)P(=O)(O)O)ccc2c1
70		100			64	4.80	3.74	3.51		O=P(O)(O)C(F)(F)c1ccc2ccc(C(F)(F)P(=O)(O)O)cc2c1
